The values below come from patent publication US20230332103A1, “Methods and Compositions for Generating Human Forebrain Neural Progenitor Cells and for Maturation Thereof to Parvalbumin+ Interneurons” (Trailhead Biosystems Inc., priority 2021, published 2023).

Entries after “also recorded” stand apart in the source; their conditions may differ.

One assay deals with MGE progenitor cells. As to the kind of experiment: HD-DoE 12-factor experiment for stage 4 recipe, optimized for MEF2C. The format is cell-based, human. An excerpt:
These effectors are small molecules or proteins. They are commonly used during stepwise differentiation of stem cells to specific fates. The choice of the effectors was based on current literature on neural induction in forebrain region of developing brain and differentiation of stem cells to neural progenitors.
To evaluate the effectors, experiments with at least 8 factors were designed that can assess the response of cells to 48 or more different combinations of effectors in a range of concentrations. To analyze the models, we focused on expression of genes involved in development and patterning of the forebrain interneurons maturation including LHX6 (Yuan et al. (2018) Elife, 7:e37382), DLX5 (Wang et al. (2010) J. Neuroscience 30:5334-5345), ASCL1 (Shi et al. (2016) J. Biol. Chem. 291:13560-13570). At later stages we focused on interneuron maturation genes including Parvalbumin and absence of somatostatin (Horn and Nicoll (2018) Proc. Natl. Acad. Sci. 115:589-594). The impacts of each effector on gene expression level are defined by a parameter called factor contribution that is calculated for each effector during the modeling.
To identify the recipe of stage 4 of differentiation, 48 different combinations of effectors generated using Design-of-Experiments compression through D-optimality were robotically prepared. The effector combinations were prepared in a basal media and were subsequently added to the cells, which were then allowed to differentiate. Three days later RNA extraction was performed, and gene expression was obtained using quantitative PCR analysis. The data was normalized and modeled using partial least squares regression analysis to the effector design, resulting in the generation of gene-specific models, which after model tuning for maximal predictive power, provided explanation of the effectors ability to control the expression of individual genes, combinatorically, and individually. Solutions within the tested space could then be explored to address desirability. […] Valproic Acid can inhibit histone deaceylases and increase γ-aminobutyric acid (GABA). […] GDNF is the […] Glial cell line-derived neurotrophic factor and can activate the GDNF pathway.
To find the set of factors that have the potential to optimize MEF2C in this experiment, a new assessment was done through dynamic profile analysis with focus on maximal expression of MEF2C (FIG. 20).

Assay [1] relates to human pluripotent stem cells. Put plainly: factor criticality analysis (dynamic profile analysis) of stage 1 recipe. Format: cell-based. Further details: unit not given here. The conditions noted are these: other five factors present; for expression level of FEZF2 when the effector is removed: 2000 with all six factors; for expression level of SIX3 when the effector is removed: 3000 with all six factors; for expression level of OTX2 when the effector is removed: 5500 with all six factors. The method, then: To assess the impact of the elimination of each validated factor, dynamic profile analysis was used and compared the expression level of genes of interest in absence of each finalized factor while others are present.
In the stage 1 recipe, each of the six finalized factors were removed individually while the other five factors were present and expression levels of forebrain genes was assessed compared to the presence of all six factors together. The results are summarized in FIG. 11A-B. When LDN193189 was removed, expression levels of FEZF2, OTX2 and SIX3 were decreased drastically from 2000 to 1000, 5500 to 4000 and 3000 to 0, respectively. […] When Purmorphamine was removed, levels of FEZF2 and SIX3 were decreased to 1000 and below 3000, while levels of OTX2 increased to 6500.

Assay [2] concerns stage 2 neural stem cells (cells treated with stage 1 and stage 2 media). As to the kind of experiment: HD-DoE experiment for stage 3 recipe, optimized for ASCL1. Format: cell-based, human. The method, then:
To further guide the cells to medial ganglionic eminence progenitor fate, an additional HD-DoE experiment was performed for 3 days on cells that were treated with stage 1 and stage 2 media for total of 6 days prior to start of the experiment. This experiment included 13 effectors, LDN193189, A8301, GNF5837, AZD3147, GSI-XX, Takinib, PD0325901, PD173074, BLU9931, IGF-1, MHY1485, Purmorphamine and Prostratin. In this model, we focused on maximum expression of genes expressed in neuronal progenitor cells in medial ganglionic eminence (MGE) region including ASCL1, LHX6 and DLX1 (Silberberg et al. (2016) Neuron 92:59-74). When the model was optimized for maximum expression of ASCL1 at 1700, A8301, GSI-XX, Purmorphamine and Takinib, which is an inhibitor of TAK1 pathway, had the highest factor contributions, 18.1, 14.1, 12.7 and 10.1 respectively. […]

Assay [3] deals with stage 2 neural stem cells. Put plainly: factor criticality analysis (dynamic profile analysis) of stage 3 recipe. Format: cell-based, human. Further details: unit not given here. The following applies: other five factors present. The method, then: To assess the impact of the elimination of each validated factor, dynamic profile analysis was used and compared the expression level of genes of interest in absence of each finalized factor while others are present. […] In the stage 3 recipe, each of the six finalized factors were removed while the other five factors remained present and the expression levels of ASCL1, DLX1 and LHX6 were assessed compared to the presence of all six factors. […] As expected, in the absence of IGF-1, the value of DLX1 increases to 410, however, ASCL1 and LHX6 decreased to 1390 and 220, respectively.

Setting [4] is: dynamic profile analysis, FIG. 10.

For the compound `c1ccc2c(-c3cnn4cc(-c5ccc(N6CCNCC6)cc5)cnc34)ccnc2c1` [LDN193189], the “impact on expression of MEF2C” value with MGE progenitor cells (dynamic profile analysis, FIG. 20) is “negative effect”. In the assay on MGE progenitor cells (significant negative effect, model optimized for maximal expression of MEF2C), the “factor contribution on expression of MEF2C” value turned out to be 11. Further, in assay [1], the “expression level of FEZF2 when the effector is removed” value is listed as 1000, the “expression level of SIX3 when the effector is removed” value is reported as 0 and the “expression level of OTX2 when the effector is removed” value was 4000.
Regarding `c1ccc2c(Oc3nc(Nc4ccc(N5CCOCC5)cc4)c4ncn(C5CCCCC5)c4n3)cccc2c1` [Purmorphamine], in assay [2] (setting [4]), the “impact on expression of ASCL1” value is “positive trends; also recorded: Positive impact”, the “impact on expression of DLX1” value is “did not have a significant negative impact” and the “impact on expression of LHX6” value is reported as “positive trends; also recorded: Positive impact”. Further, the “factor contribution on expression of ASCL1” value in assay [2] (positive, model optimized for maximum expression of ASCL1 at 1700, FIG. 9) is 12.7. For the same compound, the “expression level of DLX1 when the effector is removed” value in assay [3] (220 with all six factors) is on record as “stayed the same”. Moreover, the “expression level of LHX6 when the effector is removed” value in assay [3] (240 with all six factors) was 190. Further, the “expression level of ASCL1 when the effector is removed” value in assay [3] (1650 with all six factors) was found to be 1200. Further, in assay [1], the “expression level of FEZF2 when the effector is removed” value was found to be 1000, the “expression level of SIX3 when the effector is removed” value is on record as “below 3000” and the “expression level of OTX2 when the effector is removed” value was found to be 6500.
